# Data as given in patent US20170275650A1, “ENDOSOMAL ESCAPE DOMAINS FOR […] OF MACR[…] CELLS” (priority 2014, published 2017).
# “Also recorded” adds a separate entry of the source. Where a SMILES comes first, the peptide text is derived from it. Bridges are numbered along the chain shown (N, C = ends). Roman numbers before positions name the chains, in order. Where no end group is shown, it is not given here.
# What was measured:
# [1] = test system: GFPβ1-10 expressing H1299c#G3 cells; assay type: cell-based, human; conditions: FACS FSC/SSC and viable cell number relative to untreated control cells
# Text: Cell morphology and cell viability.
# [2] = test system: GFPβ1-10 expressing H1299c#G3 cells; assay: split GFP fluorescence complementation transduction assay (FACS); assay type: cell-based, human; conditions: for GFP fluorescence / transduction compared to parental GFPβ11-(S-S)-TAT: dose-dependent comparison, up to 60 μM, FACS (FIG. 4, 5); for GFP fluorescence, head-to-head comparison of PTD/CPP delivery domains: 30 μM GFPβ11-(S-S)-PTD/CPP peptide, FACS (FIG. 3B, C); for escape efficiency compared to the six PEG unit (P6) spacer: GFPβ11-(S-S)-TAT-PEG(n)-GWWG series (FIG. 4)
# Experimental: Peptide transduction. All transduction experiments were performed in 48-well plates. An optimized protocol was established. First, 15,000 or 20,000 cells were plated in each well. Next day, the indicated peptides were pipetted into eppendorf tubes. Transduction buffer (60% OptiMEM and 40% PBS) was added to peptide (100 μl total volume), directly mixed by pipetting up and down five times and then immediately transferred to cells. All pipetting steps were done in a laminar flow cell culture hood and standardized to 15 min for each plate before transferring the plate of cells to a 37° C. CO2 incubator for 1.5 h before addition of 500 μl DMEM supplemented with 10% FBS and another incubation round for 3.5 h in the 37° C. CO2 incubator (alternatively cells were incubated 2 h with peptides and another 4 h with DMEM, 10% FBS (FIG. 8b, c, d). For the transduction time-course, cells were incubated with peptides in transduction buffer until indicated time-points. All cells were trypzinized and collected in 250 μl OptiMEM without phenol red and analyzed by FACS (GFP, FSC/SSC). 4000 viable cells were analyzed per sample. Data is presented as fold change in fluorescence compared to non-treated cells.
# To address these problems, the disclosure provides a self-assembling, bimolecular or split GFP fluorescence complementation system that was originally designed to tag and monitor proteins. GFP is composed of 11 β-strands that form a barrel structure allowing for peptidyl backbone cyclization and formation of a fluorescent chromophore. […] Importantly, co-incubation of GFPβ1-10 with the GFPβ11 peptide in trans efficiently reconstitutes GFP fluorescent chromophore bond and GFP fluorescence (FIG. 1a). To study PTD-mediated delivery, cell lines were generated that constitutively expressed the non-fluorescent GFPβ1-10 fragment and treated them in trans with a GFPβ11-PTD/CPP peptide to restore GFP fluorescence.
# Cell clones of various human cell lines constitutively expressing the non-fluorescent large GFPβ1-10 fragment, including H1299 non-small cell lung carcinoma, HaCaT immortalized keratinocytes, and MDA-MB-231 and MCF7 breast carcinomas, and assayed for reconstituted intracellular GFP fluorescence after treatment with transducible GFPβ11-PTD/CPP peptides by FACS (FIG. 1a). Starting with human H1299 cells, known to be a good model for PTD/CPP-mediated uptake, two GFPβ1-10 expressing clones were generated (c#G3 and c#G4) (FIG. 8a). GFPβ1-10 expressing H1299c#G3 cells were treated for 1.5 h with increasing amounts of transducible GFPβ11-TAT peptide (0-60 μM), followed by an additional 3.5 h in DMEM supplemented with 10% FBS. At 5 h post-addition of GFPβ11-TAT peptide, cells were trypsinized and live cell assayed by FACS.
compound,measurement,setting,value
CC[C@H](C)[C@H](NC(=O)CNC(=O)[C@H](C)NC(=O)[C@H](C)NC(=O)[C@H](CC(N)=O)NC(=O)[C@@H](NC(=O)[C@H](Cc1ccc(O)cc1)NC(=O)[C@H](CCC(=O)O)NC(=O)[C@H](Cc1c[nH]cn1)NC(=O)[C@H](CC(C)C)NC(=O)[C@@H](NC(=O)[C@H](CCSC)NC(=O)[C@H](Cc1c[nH]cn1)NC(=O)[C@H](CC(=O)O)NC(=O)[C@@H](N)CCCNC(=N)N)C(C)C)C(C)C)C(=O)N[C@H](C(=O)NCC(=O)NCC(=O)N[C@@H](CO)C(=O)NCC(=O)NCC(=O)N[C@@H](CSSC[C@H](N)C(=O)NCC(=O)NCC(=O)N[C@@H](CCCNC(=N)N)C(=O)N[C@@H](CCCCN)C(=O)N[C@@H](CCCCN)C(=O)N[C@@H](CCCNC(=N)N)C(=O)N[C@@H](CCCNC(=N)N)C(=O)N[C@@H](CCC(N)=O)C(=O)N[C@@H](CCCNC(=N)N)C(=O)N[C@@H](CCCNC(=N)N)C(=O)N[C@@H](CCCNC(=N)N)C(=O)NCC(=O)N[C@@H](Cc1c[nH]c2ccccc12)C(=O)N[C@@H](Cc1c[nH]c2ccccc12)C(=O)NCC(N)=O)C(N)=O)[C@@H](C)O [GFPβ11-(S-S)-TAT-WW] (I: H-RDHMVLHEYVNAAGITGGSGGC-NH2 / II: H-CGGRKKRRQRRRGWWG-NH2; disulfide I:22-II:1),cytotoxicity / morphological changes,[1],severely increased cytotoxicity
CC[C@H](C)[C@H](NC(=O)CNC(=O)[C@H](C)NC(=O)[C@H](C)NC(=O)[C@H](CC(N)=O)NC(=O)[C@@H](NC(=O)[C@H](Cc1ccc(O)cc1)NC(=O)[C@H](CCC(=O)O)NC(=O)[C@H](Cc1c[nH]cn1)NC(=O)[C@H](CC(C)C)NC(=O)[C@@H](NC(=O)[C@H](CCSC)NC(=O)[C@H](Cc1c[nH]cn1)NC(=O)[C@H](CC(=O)O)NC(=O)[C@@H](N)CCCNC(=N)N)C(C)C)C(C)C)C(=O)N[C@H](C(=O)NCC(=O)NCC(=O)N[C@@H](CO)C(=O)NCC(=O)NCC(=O)N[C@@H](CSSC[C@H](N)C(=O)NCC(=O)NCC(=O)N[C@@H](CCCNC(=N)N)C(=O)N[C@@H](CCCCN)C(=O)N[C@@H](CCCCN)C(=O)N[C@@H](CCCNC(=N)N)C(=O)N[C@@H](CCCNC(=N)N)C(=O)N[C@@H](CCC(N)=O)C(=O)N[C@@H](CCCNC(=N)N)C(=O)N[C@@H](CCCNC(=N)N)C(=O)N[C@@H](CCCNC(=N)N)C(N)=O)C(N)=O)[C@@H](C)O [GFPβ11-(S-S)-TAT],cytotoxicity / morphological changes,[1],absence of cytotoxicity
CC[C@H](C)[C@H](NC(=O)CNC(=O)[C@H](C)NC(=O)[C@H](C)NC(=O)[C@H](CC(N)=O)NC(=O)[C@@H](NC(=O)[C@H](Cc1ccc(O)cc1)NC(=O)[C@H](CCC(=O)O)NC(=O)[C@H](Cc1c[nH]cn1)NC(=O)[C@H](CC(C)C)NC(=O)[C@@H](NC(=O)[C@H](CCSC)NC(=O)[C@H](Cc1c[nH]cn1)NC(=O)[C@H](CC(=O)O)NC(=O)[C@@H](N)CCCNC(=N)N)C(C)C)C(C)C)C(=O)N[C@H](C(=O)NCC(=O)NCC(=O)N[C@@H](CO)C(=O)NCC(=O)NCC(=O)N[C@@H](CSSC[C@H](N)C(=O)NCC(=O)NCC(=O)N[C@@H](C)C(=O)NCC(=O)N[C@@H](Cc1ccc(O)cc1)C(=O)N[C@@H](CC(C)C)C(=O)N[C@@H](CC(C)C)C(=O)NCC(=O)N[C@@H](CCCCN)C(=O)N[C@H](C(=O)N[C@@H](CC(N)=O)C(=O)N[C@@H](CC(C)C)C(=O)N[C@@H](CCCCN)C(=O)N[C@@H](C)C(=O)N[C@@H](CC(C)C)C(=O)N[C@@H](C)C(=O)N[C@@H](C)C(=O)N[C@@H](CC(C)C)C(=O)N[C@@H](C)C(=O)N[C@@H](CCCCN)C(=O)N[C@@H](CCCCN)C(=O)N[C@H](C(=O)N[C@@H](CC(C)C)C(N)=O)[C@@H](C)CC)[C@@H](C)CC)C(N)=O)[C@@H](C)O [GFPβ11-(S-S)-TP10],cytotoxicity / morphological changes,[1],very high level of cytotoxicity; also recorded: high toxicity
RDHMVLHEYVNAAGIT-GGSGGC-(5-5)-CGG-RKKRRQRRR-(PEG)6-GWG [GFPβ11-(S-S)-TAT-P6-GWG],GFP fluorescence / transduction compared to parental GFPβ11-(S-S)-TAT,[2],no net effect
RDHMVLHEYVNAAGIT-GGSGGC-(S-S)-CGG-GALFLGFLGAAGSTMGAWSQPKKKRKV (chain 1 RDHMVLHEYVNAAGITGGSGGC; chain 2 CGGGALFLGFLGAAGSTMGAWSQPKKKRKV; also: disulfide to a chain's N/C-terminus) [GFPβ11-(S-S)-MPG],"GFP fluorescence, head-to-head comparison of PTD/CPP delivery domains",[2],only slightly above background
RDHMVLHEYVNAAGIT-GGSGGC-(S-S)-CGG-KKKKKKKK (chain 1 RDHMVLHEYVNAAGITGGSGGC; chain 2 CGGKKKKKKKK; also: disulfide to a chain's N/C-terminus) [GFPβ11-(S-S)-8xLys],"GFP fluorescence, head-to-head comparison of PTD/CPP delivery domains",[2],failed to induce GFP fluorescence to any high degree
same,GFP fluorescence after addition of Chloroquine,[2]; 30 μM peptide plus 100 μM Chloroquine (FIG. 3C),failed to induce GFP fluorescence to any high degree
RDHMVLHEYVNAAGIT-GGSGGC-(S-S)-CGG-LLIILRRRIRKQAHAHSK [GFPβ11-(S-S)-pVEC],"GFP fluorescence, head-to-head comparison of PTD/CPP delivery domains",[2],only slightly above background
"RDHMVLHEYVNAAGIT-GGSGGC-(S-S)-CGG-RKKRRQRRR-(PEG)6-GFFG (disulfide bond, (PEG)6-GFFG) [GFPβ11-(S-S)-TAT-P6-GFFG]",GFP fluorescence / transduction compared to parental GFPβ11-(S-S)-TAT,[2],no net effect
RDHMVLHEYVNAAGIT-GGSGGC-(S-S)-CGG-RKKRRQRRR-(PEG)6-GFWG [GFPβ11-(S-S)-TAT-P6-GFWG],GFP fluorescence / transduction compared to parental GFPβ11-(S-S)-TAT,[2],two-fold increase
RDHMVLHEYVNAAGIT-GGSGGC-(S-S)-CGG-RKKRRQRRR-(PEG)6-GG [GFPβ11-(S-S)-TAT-P6-GG],GFP fluorescence / transduction compared to parental GFPβ11-(S-S)-TAT,[2],lower uptake than GFPβ11-(S-S)-TAT peptide
RDHMVLHEYVNAAGIT-GGSGGC-(S-S)-CGG-RKKRRQRRR-(PEG)6-GWGGWG [GFPβ11-(S-S)-TAT-P6-WGGW],enhancement compared to the -GWWG motif,[2]; PEG6-spaced EED peptides (FIG. 5A-D),decreased the enhancement approximately two-fold
RDHMVLHEYVNAAGIT-GGSGGC-(S-S)-CGG-RKKRRQRRR-(PEG)6-GWWG [GFPβ11-(S-S)-TAT-P6-GWWG],GFP fluorescence / transduction compared to parental GFPβ11-(S-S)-TAT,[2],retained enhanced cytoplasmic delivery; also recorded: four-fold increase
"RDHMVLHEYVNAAGIT-GGSGGC-(S-S)-CGG-RKKRRQRRR-(PEG)12-GWWG (disulfide bond, (PEG)12-GWWG) [GFPβ11-(S-S)-TAT-P12-WW]",escape efficiency compared to the six PEG unit (P6) spacer,[2],lower escape efficiency
"RDHMVLHEYVNAAGIT-GGSGGC-(S-S)-CGG-RKKRRQRRR-(PEG)18-GWWG (disulfide bond, (PEG)18-GWWG) [GFPβ11-(S-S)-TAT-P18-WW]",escape efficiency compared to the six PEG unit (P6) spacer,[2],lower escape efficiency
same,GFP fluorescence / transduction compared to parental GFPβ11-(S-S)-TAT,[2],reduced GFPβ11 delivery below that of the control GFPβ11-(S-S)-TAT
RDHMVLHEYVNAAGIT-GGSGGC-(S-S)-CGG-RRRRRRRR (chain 1 RDHMVLHEYVNAAGITGGSGGC; chain 2 CGGRRRRRRRR; also: disulfide to a chain's N/C-terminus) [GFPβ11-(S-S)-8xArg],"GFP fluorescence, head-to-head comparison of PTD/CPP delivery domains",[2],significantly better uptake
